Values after ≈ are worked out from the molar mass of the structure shown. Where two headings read alike, the source gives them in different places.
Key:
[1] = Solubility studies, shake-flask method with HPLC quantification of HAL; type: physicochemical; settings: for solubility in KCl pH 1.2: buffer KCl (0.2 M) pH 1.2, 24 h stirring at 25 °C; for solubility in KCl pH 1.2 / solubility in PBS pH 6.8: HAL concentration by HPLC at 248 nm; for improvement over HAL (solubility in KCl pH 1.2): buffer KCl pH 1.2, ratio to HAL solubility; for solubility in PBS pH 6.8: buffer PBS (0.2 M) pH 6.8, 24 h stirring at 25 °C; for improvement over HAL (solubility in PBS pH 6.8): buffer PBS pH 6.8, ratio to HAL solubility
Method: A Scharlau (Barcelona, Spain) 100 C18 chromatographic column (3 μm, 150 × 4.6 mm) was set at 25 °C and used for compound separation, using an isocratic elution method. The mobile phase was composed of a mixture of 90% acetonitrile and 10% water. The flow rate was 0.8 mL/min, and the injection volume was 30 μL. ChemStation software was used for data acquisition and analysis (Agilent Technologies, Santa Clara, CA, USA).

[2] = Acidity values (pKa) of the molecules, literature values; type: physicochemical; settings: pKa1 of HAL minus pKa1 of coformer
[3] = high permeability but poor solubility in aqueous solution; ref [5],[6]; cited from earlier work
[4] = 25 °C, pH 1.2, aqueous buffer, thermodynamic from solid, read-out: solubility in KCl pH 1.2
[5] = 25 °C, pH 6.8, aqueous buffer, thermodynamic from solid, read-out: solubility in PBS pH 6.8

O=C(CCCN1CCC(O)(c2ccc(Cl)cc2)CC1)c1ccc(F)cc1.O=C(CCCN1CCC(O)(c2ccc(Cl)cc2)CC1)c1ccc(F)cc1.O=C(O)/C=C/C(=O)O.O=C(O)/C=C/C(=O)O [(HAL^+)2·(FU^2–)·(FU)]
solubility at 24 h [1, 4]: 1060 ± 27 µg/mL
solubility at 24 h [1, 5]: 33 ± 4 µg/mL
solubility at 24 h ([1]; pH 1.2, read-out: solubility in KCl pH 1.2): ~1000 µg/mL

O=C(CCCN1CCC(O)(c2ccc(Cl)cc2)CC1)c1ccc(F)cc1.O=C(CCCN1CCC(O)(c2ccc(Cl)cc2)CC1)c1ccc(F)cc1.O=C(O)CCCCCCC(=O)O.O=C(O)CCCCCCC(=O)O [(HAL^+)2·(SU^2–)·(SU)]
solubility in KCl pH 1.2 [1]: 1.074 ± 0.036 mg/mL
improvement over HAL (solubility in KCl pH 1.2) [1]: 1.3×
solubility in PBS pH 6.8 [1]: 0.017 ± 0.001 mg/mL
improvement over HAL (solubility in PBS pH 6.8) [1]: 2.3×

O=C(CCCN1CCC(O)(c2ccc(Cl)cc2)CC1)c1ccc(F)cc1.O=C(CCCN1CCC(O)(c2ccc(Cl)cc2)CC1)c1ccc(F)cc1.O=C(O)c1ccc(C(=O)O)cc1.O=C(O)c1ccc(C(=O)O)cc1 [(HAL^+)2·(TR^2–)·(TR)]
solubility in KCl pH 1.2 [1]: 0.678 ± 0.019 mg/mL
solubility in PBS pH 6.8 [1]: 0.051 ± 0.002 mg/mL

O=C(O)CCCC(=O)O [Glutaric acid, glutaric acid]
ΔpKa1 (difference of acidity of the coformer with HAL) [2]: 3.71

O=C(CCCN1CCC(O)(c2ccc(Cl)cc2)CC1)c1ccc(F)cc1 [HAL, Haloperidol, reference compound]
solubility at 24 h ([1]; KCl buffer (0.2 M) pH 1.2, 25 °C, pH 1.2, aqueous buffer, thermodynamic from solid, read-out: solubility in KCl pH 1.2): 831 ± 42 µg/mL (≈ 2210 µM)
solubility at 24 h ([1]; PBS buffer (0.2 M) pH 6.8, 25 °C, pH 6.8, aqueous buffer, thermodynamic from solid, read-out: solubility in PBS pH 6.8): 7 ± 1 µg/mL (≈ 18.6 µM)
Biopharmaceutics Classification System (BCS) class [3]: Class II

O=C(CCCN1CCC(O)(c2ccc(Cl)cc2)CC1)c1ccc(F)cc1.O=C(O)CCCC(=O)O [HAL^+·GU^–]
solubility in KCl pH 1.2 [1]: 1.021 ± 0.012 mg/mL
solubility in PBS pH 6.8 [1]: 0.048 ± 0.001 mg/mL

O=C(CCCN1CCC(O)(c2ccc(Cl)cc2)CC1)c1ccc(F)cc1.O=C(O)/C=C\C(=O)O [HAL^+·ME^–]
solubility at 24 h [1, 4]: 1400 ± 20 µg/mL
solubility at 24 h [1, 5]: 74 ± 4 µg/mL
solubility of the salt relative to the ionic cocrystal (HAL^+)2·(FU^2–)·(FU) ([1]; both phases with C4 coformers): twice

O=C(CCCN1CCC(O)(c2ccc(Cl)cc2)CC1)c1ccc(F)cc1.O=C(O)CC(=O)O [HAL^+·MO^–]
solubility at 24 h [1, 4]: 525 ± 37 µg/mL
solubility at 24 h [1, 5]: 119 ± 2 µg/mL

O=C(CCCN1CCC(O)(c2ccc(Cl)cc2)CC1)c1ccc(F)cc1.O=C(O)CCCCCC(=O)O [HAL^+·PI^–]
solubility in KCl pH 1.2 [1]: 1.246 ± 0.035 mg/mL
improvement over HAL (solubility in KCl pH 1.2) [1]: 1.5×
solubility in PBS pH 6.8 [1]: 0.072 ± 0.001 mg/mL
improvement over HAL (solubility in PBS pH 6.8) [1]: 9.7×

O=C(O)CCCCCC(=O)O [Pimelic acid, pimelic acid]
ΔpKa1 (difference of acidity of the coformer with HAL) [2]: 3.55

O=C(O)CCCCCCC(=O)O [Suberic acid, suberic acid]
ΔpKa1 (difference of acidity of the coformer with HAL) [2]: 3.52
